From the NIST ThermoML archive (doi:10.1021/je801006q)
Numbers after ± are expanded uncertainties.

Legend:
[1] = excess molar enthalpy (molar enthalpy of mixing); xn = mol fraction of the nth substance listed; settings: 298.15 K, 101 kPa, Liquid, Calvet calorimetry
[2] = xn = mol fraction of the nth substance listed; settings: 101 kPa, Liquid

O=C1CCCN1 [2-pyrrolidinone] + CC(C)(C)O
[1]
Settings	excess molar enthalpy [kcal/mol]
x1 = 0.0498	0.0345 ± 0.000813
x1 = 0.1189	0.0582 ± 0.00131
x1 = 0.1932	0.077 ± 0.0017
x1 = 0.2551	0.0902 ± 0.00198
x1 = 0.3309	0.102 ± 0.00222
x1 = 0.3946	0.106 ± 0.00232
x1 = 0.4411	0.106 ± 0.00232
x1 = 0.4943	0.103 ± 0.00225
x1 = 0.5766	0.0947 ± 0.00208
x1 = 0.6806	0.081 ± 0.00179
x1 = 0.7422	0.0687 ± 0.00153
x1 = 0.8435	0.0413 ± 0.000956
x1 = 0.9312	0.0257 ± 0.000621

[2]
Settings	mass density, 293.15 K [kg/m3]	mass density, 298.15 K [kg/m3]	mass density, 303.15 K [kg/m3]	viscosity, 293.15 K [mPa·s]	viscosity, 298.15 K [mPa·s]	viscosity, 303.15 K [mPa·s]
x1 = 0.0786	806.96 ± 0.48	802 ± 0.48	797.13 ± 0.49	4.778 ± 0.42	3.771 ± 0.33	3.586 ± 0.32
x1 = 0.1832	836.27 ± 0.44	831.45 ± 0.45	826.69 ± 0.46	3.931 ± 0.35	3.23 ± 0.29	2.732 ± 0.25
x1 = 0.2489	855.32 ± 0.42	850.57 ± 0.43	845.86 ± 0.44	3.399 ± 0.3	2.698 ± 0.24	2.053 ± 0.19
x1 = 0.3105	873.59 ± 0.4	868.94 ± 0.41	864.29 ± 0.42	2.824 ± 0.25	2.109 ± 0.19	1.481 ± 0.14
x1 = 0.3875	897.03 ± 0.38	892.52 ± 0.39	887.93 ± 0.39	2.167 ± 0.2	1.547 ± 0.15	0.786 ± 0.08
x1 = 0.4556	918.3 ± 0.36	913.93 ± 0.37	909.39 ± 0.37	1.857 ± 0.17	1.333 ± 0.13	0.464 ± 0.053
x1 = 0.5003	932.55 ± 0.35	928.28 ± 0.36	923.8 ± 0.36	1.665 ± 0.16	–	–
x1 = 0.5734	956.36 ± 0.33	952.27 ± 0.34	947.87 ± 0.34	1.87 ± 0.17	1.496 ± 0.14	–
x1 = 0.6544	983.51 ± 0.31	979.59 ± 0.32	975.32 ± 0.32	2.478 ± 0.23	2.049 ± 0.19	1.049 ± 0.1
x1 = 0.7236	1007.36 ± 0.32	1003.63 ± 0.31	999.49 ± 0.31	3.648 ± 0.32	3.252 ± 0.29	2.12 ± 0.19
x1 = 0.7995	1034.28 ± 0.38	1030.79 ± 0.37	1026.74 ± 0.36	5.671 ± 0.48	5.011 ± 0.43	3.681 ± 0.33
x1 = 0.8672	1059.06 ± 0.44	1055.73 ± 0.43	1051.83 ± 0.42	8.035 ± 0.62	7.463 ± 0.59	5.849 ± 0.49
x1 = 0.9237	1080.26 ± 0.49	1077.13 ± 0.48	1073.37 ± 0.48	10.94 ± 0.8	9.609 ± 0.72	8.042 ± 0.62
x1 = 0.9823	1102.87 ± 0.54	1099.95 ± 0.54	1096.31 ± 0.53	14.34 ± 1	12.12 ± 0.88	9.894 ± 0.74

O=C1CCCN1 [2-pyrrolidinone] + CC(C)CO
[1]
Settings	excess molar enthalpy [kcal/mol]
x1 = 0.0522	0.029 ± 0.000693
x1 = 0.1222	0.0512 ± 0.00117
x1 = 0.1812	0.065 ± 0.00146
x1 = 0.2451	0.0714 ± 0.00158
x1 = 0.3296	0.0748 ± 0.00165
x1 = 0.4043	0.074 ± 0.00163
x1 = 0.4535	0.0711 ± 0.00158
x1 = 0.5022	0.0663 ± 0.00148
x1 = 0.5912	0.0582 ± 0.00129
x1 = 0.6807	0.0489 ± 0.0011
x1 = 0.7402	0.043 ± 0.00098
x1 = 0.8466	0.0286 ± 0.000693
x1 = 0.9233	0.0171 ± 0.000454

[2]
Settings	mass density, 293.15 K [kg/m3]	mass density, 298.15 K [kg/m3]	mass density, 303.15 K [kg/m3]	viscosity, 293.15 K [mPa·s]	viscosity, 298.15 K [mPa·s]	viscosity, 303.15 K [mPa·s]
x1 = 0.0889	824.77 ± 0.45	821.28 ± 0.46	817.86 ± 0.46	3.624 ± 0.32	3.033 ± 0.27	2.921 ± 0.26
x1 = 0.1776	848.94 ± 0.42	845.47 ± 0.43	842.04 ± 0.43	3.381 ± 0.3	2.802 ± 0.25	2.596 ± 0.23
x1 = 0.2378	865.74 ± 0.41	862.31 ± 0.41	858.86 ± 0.42	2.987 ± 0.27	2.57 ± 0.23	2.409 ± 0.22
x1 = 0.3009	883.75 ± 0.39	880.34 ± 0.39	876.86 ± 0.4	2.87 ± 0.26	2.483 ± 0.23	2.167 ± 0.2
x1 = 0.3978	912.12 ± 0.36	908.8 ± 0.37	905.28 ± 0.37	2.787 ± 0.25	2.487 ± 0.23	1.789 ± 0.17
x1 = 0.4456	926.49 ± 0.35	923.19 ± 0.35	919.66 ± 0.36	2.833 ± 0.25	2.483 ± 0.23	1.75 ± 0.16
x1 = 0.5106	946.36 ± 0.33	943.11 ± 0.34	939.59 ± 0.34	3.145 ± 0.28	2.736 ± 0.25	1.783 ± 0.17
x1 = 0.5844	969.46 ± 0.31	966.29 ± 0.32	962.76 ± 0.32	3.686 ± 0.33	3.262 ± 0.29	2.118 ± 0.19
x1 = 0.6489	990.11 ± 0.3	987 ± 0.3	983.49 ± 0.31	4.428 ± 0.39	3.966 ± 0.35	2.645 ± 0.24
x1 = 0.7126	1010.87 ± 0.32	1007.83 ± 0.31	1004.4 ± 0.31	5.569 ± 0.47	4.938 ± 0.43	3.369 ± 0.3
x1 = 0.7943	1038.14 ± 0.38	1035.18 ± 0.37	1031.8 ± 0.37	7.61 ± 0.6	6.753 ± 0.54	4.876 ± 0.42
x1 = 0.8564	1059.36 ± 0.43	1056.43 ± 0.43	1053.04 ± 0.42	9.46 ± 0.71	8.552 ± 0.66	6.388 ± 0.52
x1 = 0.9126	1078.91 ± 0.48	1075.98 ± 0.47	1072.53 ± 0.47	11.57 ± 0.84	10.27 ± 0.76	8.021 ± 0.62
x1 = 0.9753	1100.98 ± 0.53	1098.14 ± 0.53	1094.58 ± 0.52	14.55 ± 1	12.91 ± 0.93	10.15 ± 0.76
